The text below walks through data of US6696497B2, “Fungicidal mixtures” (BASF Aktiengesellschaft, priority 2000, dated 2004).

For assay [1], the system named is Plasmopara viticola on grapes. Description: Fungicidal efficacy (3 day residual) on grapes, greenhouse. The class given is in vivo. The settings on record: single compound. How it is done: (§1) The trials are carried out under greenhouse conditions in residual or curative applications. The fungicides are applied in single treatments, or in a combination comprising a benzophenone of formula I and a compound of formula II. The compounds are applied in form of an aqueous spray mix obtained from concentrated formulation or the technical material.
(§2) Grape plants of variety “Mueller-Thurgau” are grown in the greenhouse from small stake cuttings. When about 40 cm high, the number of leaves is reduced to 4 fully expanded leaves per plant.
(§3) The compounds are dissolved in acetone with 0.5% TRITON™ X155 (an alkylaryl polyether alcohol), and sprayed in concentrations and combinations as given in tables I and II with a three nozzle overhead fungicide sprayer to near run-off. Plants are then allowed to air-dry.
(§4) Inoculation precedes treatment in the case of curative evaluations and follows treatment in case of residual evaluations.
(§5) For inoculation an aqueous spore suspension of the pathogen is applied to the plant and the plants are kept 1-2 days in a moist infection chamber before being returned to the greenhouse where they are maintained by bottom watering.
(§6) Disease on the foliage as percent leaf area with disease symptoms/signs is evaluated about 7 days after inoculation. [formula]
(§7) Assessments of the diseases took place at the indicated day after the application of the compounds. Percent infected leaf area infected was evaluated. The efficacy of the compounds/compounds mixtures to control the diseases was calculated by using the formula given above.
(§8) Synergy was calculated using the % disease control values of specific treatments for the two COLBY formula given hereinabove.
Fungicidal efficacy of the mixture of BP-4+iprovalicarb (3 day residual) against Plasmopara viticola on grapes
tank mix was obtained from technical materials of BP-4 and iprovalicarb.

Assay [2] relates to Plasmopara viticola on grapes. Nature of the assay: Fungicidal efficacy (2 day curative) on grapes, greenhouse. Particulars: single compound. It counts as in vivo. How it is done:
as §1, §2, §3, §4, §5, §6, §7, §8
Fungicidal efficacy of the mixture of BP-4+iprovalicarb (2 day curative) against Plasmopara viticola on grapes
The tank mix was obtained from technical materials of BP-4 and iprovalicarb.

As for `COc1cc(C)c(C(=O)c2c(OC)ccc(Br)c2C)c(OC)c1OC` [BP-4, 5-bromo-2′,6-dimethyl-2,4′,5′,6′-tetramethoxybenzophenone], the “Observed Efficacy” value was found to be 0% in assay [1] (dose rate 0.037 ppm); 0% in assay [1] (dose rate 0.11 ppm); 0% in assay [1] (dose rate 0.33 ppm); 0% in assay [1] (dose rate 1 ppm); 1% in assay [1] (dose rate 3 ppm); 4% in assay [1] (dose rate 9 ppm). The “Observed Efficacy” value in assay [1] (dose rate 27 ppm) is 6%; in assay [2] (dose rate 0.037 ppm) it was 0%; in assay [2] (dose rate 0.11 ppm) it was 0%; in assay [2] (dose rate 0.33 ppm), 0%; in assay [2] (dose rate 1 ppm), 0%; in assay [2] (dose rate 3 ppm), 0%. Moreover, the “Observed Efficacy” value is 0% in assay [2] (dose rate 9 ppm) and 2% in assay [2] (dose rate 27 ppm).
Turning to `Cc1ccc(C(C)NC(=O)C(NC(=O)OC(C)C)C(C)C)cc1` (stereo not drawn) [iprovalicarb, [2-methyl-1-[1-(4-methylphenyl)-ethylaminocarbonyl]-propyl]-carbamic acid isopropyl ester, reference compound], the “Observed Efficacy” value in assay [1] (dose rate 0.11 ppm) stood at 0%; in assay [1] (dose rate 0.33 ppm), 3%; in assay [1] (dose rate 1 ppm), 11%; in assay [1] (dose rate 3 ppm), 55%; in assay [1] (dose rate 9 ppm) it was 90%; in assay [2] (dose rate 0.11 ppm), 0%. Also, the “Observed Efficacy” value in assay [2] (dose rate 0.33 ppm) was determined as 2%; in assay [2] (dose rate 1 ppm) it was 11%; in assay [2] (dose rate 3 ppm) it was 63%; in assay [2] (dose rate 9 ppm), 91%.
